Key:
Experiment in all cases: relative viability (nuclei count vs DMSO), 5 days (fraction); higher = more cells survive
NCI-H1993 = system: NCI-H1993
Procedure, shortened: (§1)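 Each reported value is a median over duplicate plates. It expresses relative viability: treated-well nuclei count divided by vehicle-well nuclei count. Lung cancer cell lines in 1536-well plates were dosed by pin tool a day after seeding, alone with one drug or with a fixed anchor-drug dose plus five library-drug doses (not always all listed) in √10 steps, and nuclei were counted after 5 days.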

NCI-H2023 = system: NCI-H2023
Procedure, shortened: as §1

NCI-H2085 = system: NCI-H2085
Procedure, shortened: as §1

NCI-H2126 = system: NCI-H2126
Procedure, shortened: as §1

NCI-H2342 = system: NCI-H2342
Procedure, shortened: as §1

NCI-H2347 = system: NCI-H2347
Procedure, shortened: as §1

NCI-H358 = system: NCI-H358
Procedure, shortened: as §1

NCI-H650 = system: NCI-H650
Procedure, shortened: as §1

NCI-H838 = system: NCI-H838
Procedure, shortened: as §1

PC-14 = system: PC-14
Procedure, shortened: as §1

SW 1573 = system: SW 1573
Procedure, shortened: as §1

UMC-11 = system: UMC-11
Procedure, shortened: as §1

NC(=O)Nc1cc(-c2cccc(F)c2)sc1C(=O)N[C@H]1CCCNC1 [AZD7762] + Cc1nc(Nc2ncc(C(=O)Nc3c(C)cccc3Cl)s2)cc(N2CCN(CCO)CC2)n1 [Dasatinib] (partner 0.075 µM) gave a relative viability (NCI-H1993; first compound 0.1 µM) of 0.481, a relative viability (NCI-H1993; first compound 0.3162 µM) of 0.574 and a relative viability (NCI-H1993; first compound 1 µM) of 0.588. It also gave a relative viability (NCI-H2023; first compound 0.01 µM) of 0.513, a relative viability (NCI-H2023; first compound 0.03162 µM) of 0.425 and a relative viability (NCI-H2023; first compound 0.1 µM) of 0.328. The relative viability (NCI-H2023; first compound 0.3162 µM) was 0.159, the relative viability (NCI-H2023; first compound 1 µM) was 0.0942 and the relative viability (NCI-H2085; first compound 0.01 µM) was 0.247. The relative viability (NCI-H2085; first compound 0.03162 µM) was 0.254, the relative viability (NCI-H2085; first compound 0.1 µM) was 0.243 and the relative viability (NCI-H2085; first compound 0.3162 µM) was 0.201. For the same compound, the relative viability (NCI-H2085; first compound 1 µM) was 0.216, the relative viability (NCI-H2126; first compound 0.01 µM) was 0.658 and the relative viability (NCI-H2126; first compound 0.03162 µM) was 0.665. The relative viability (NCI-H2126; first compound 0.1 µM) was 0.639, the relative viability (NCI-H2126; first compound 0.3162 µM) was 0.648 and the relative viability (NCI-H2126; first compound 1 µM) was 0.402. For the same compound, the relative viability (NCI-H2342; first compound 0.01 µM) was 0.326, the relative viability (NCI-H2342; first compound 0.03162 µM) was 0.344 and the relative viability (NCI-H2342; first compound 0.1 µM) was 0.33. It also gave a relative viability (NCI-H2342; first compound 0.3162 µM) of 0.309, a relative viability (NCI-H2342; first compound 1 µM) of 0.31 and a relative viability (NCI-H2347; first compound 0.01 µM) of 0.36. For the same compound, the relative viability (NCI-H2347; first compound 0.03162 µM) was 0.306, the relative viability (NCI-H2347; first compound 0.1 µM) was 0.346 and the relative viability (NCI-H2347; first compound 0.3162 µM) was 0.35. For the same compound, the relative viability (NCI-H2347; first compound 1 µM) was 0.253, the relative viability (NCI-H358; first compound 0.01 µM) was 0.151 and the relative viability (NCI-H358; first compound 0.03162 µM) was 0.182. It also gave a relative viability (NCI-H358; first compound 0.1 µM) of 0.188, a relative viability (NCI-H358; first compound 0.3162 µM) of 0.167 and a relative viability (NCI-H358; first compound 1 µM) of 0.17. The relative viability (NCI-H650; first compound 0.01 µM) was 0.455, the relative viability (NCI-H650; first compound 0.03162 µM) was 0.539 and the relative viability (NCI-H650; first compound 0.1 µM) was 0.475. For the same compound, the relative viability (NCI-H650; first compound 0.3162 µM) was 0.505, the relative viability (NCI-H650; first compound 1 µM) was 0.412 and the relative viability (NCI-H838; first compound 0.01 µM) was 0.322. It also gave a relative viability (NCI-H838; first compound 0.03162 µM) of 0.276, a relative viability (NCI-H838; first compound 0.1 µM) of 0.258 and a relative viability (NCI-H838; first compound 0.3162 µM) of 0.251. It also gave a relative viability (NCI-H838; first compound 1 µM) of 0.24, a relative viability (PC-14; first compound 0.01 µM) of 0.281 and a relative viability (PC-14; first compound 0.03162 µM) of 0.254. It also gave a relative viability (PC-14; first compound 0.1 µM) of 0.211, a relative viability (PC-14; first compound 0.3162 µM) of 0.0804 and a relative viability (PC-14; first compound 1 µM) of 0.0213. The relative viability (SW 1573; first compound 0.01 µM) was 0.576, the relative viability (SW 1573; first compound 0.03162 µM) was 0.561 and the relative viability (SW 1573; first compound 0.1 µM) was 0.45. It also gave a relative viability (SW 1573; first compound 0.3162 µM) of 0.247, a relative viability (SW 1573; first compound 1 µM) of 0.121 and a relative viability (UMC-11; first compound 0.01 µM) of 0.516. The relative viability (UMC-11; first compound 0.03162 µM) was 0.447, the relative viability (UMC-11; first compound 0.1 µM) was 0.407 and the relative viability (UMC-11; first compound 0.3162 µM) was 0.392. The relative viability (UMC-11; first compound 1 µM) was 0.215.

Source: the supplement of paper PMC10307832
